Patent US9388139B2, “Derivatives of celeboxib, use thereof and preparation thereof” (German University, priority 2011, dated 2016)

Legend:
[1] = target: PDE2A (Homo sapiens (Human), UniProt O00408); experiment: PDE isozyme selectivity, IMAP assay; format: biochemical
Experimental: (§1) PDE activity was measured using the IMAP fluorescence polarization assay (Molecular Devices) in which binding of hydrolyzed cyclic nucleotide substrate to immobilized metal coordination complexes increases fluorescence polarization (FP). Tetramethylrhodamine (TAMRA)-cGMP and fluorescein-cAMP were used as substrates, each at final concentration of 50 nmol/L. The PDE assay was done according to the manufacturer's specifications using either whole cell lysates or recombinant enzymes.

[2] = tested on: human breast MDA-MB-231 tumor cell line; experiment: Tumor cell growth assay (Cell Titer Glo); format: cell-based; details: MDA-MB-231, 72 hours, read-out: IC50 μM against MDA-MB-231
[3] = tested on: human colorectal HT-29 tumor cell line; experiment: Tumor cell growth assay (Cell Titer Glo); format: cell-based; details: HT-29, 72 hours, read-out: IC50 μM against HT-29
[4] = target: recombinant human PDE5 (Homo sapiens (Human), UniProt O76074); experiment: PDE5 inhibition, IMAP fluorescence polarization assay; format: biochemical; details: recombinant human PDE5; IC50 determined if inhibition >50% at 50 μM screening dose; read-out: IC50 μM against PDE5
Experimental: (§2) Compounds according to the present disclosure were tested for their in vitro ability to inhibit recombinant human PDE5, COX1 and COX2 enzymes at screening doses of 50, 100 and 100 μM respectively.
as §1

[5] = target: COX1 (Ovis aries (Sheep), UniProt P05979); experiment: COX-1 activity, colorimetric assay; format: biochemical, ovine; details: screening dose 100 μM; read-out: IC50 μM against COX1
Experimental: as §2
(§3) COX-1 and COX-2 activities were measured using purified ovine COX-1 and COX-2 with colorimetric assay kits obtained from Cayman Chemical Co. (Ann Arbor, Mich.). The activities of COX-1 and COX-2 were measured after the addition of arachidonic acid and incubation at 25° C. for 5 min by absorbance at 590 nm as specified by the manufacturer.

[6] = target: COX2 (Ovis aries (Sheep), UniProt P79208); experiment: COX-2 activity, colorimetric assay; format: biochemical, ovine; details: screening dose 100 μM; read-out: IC50 μM against COX2
Experimental: as §2, §3

[7] = tested on: NCI-H460; experiment: Tumor cell growth inhibition panel; format: cell-based; details: Homo sapiens, Lung
Experimental: (§4) Thus, compound 12 is able to show broad spectrum tumor cell growth inhibitory activity independent of cyclooxygenase inhibition, whereas PDE5 may be the major contributor to such activity.
(§5) The human tumor cell lines were purchased from the American Type Culture Collection (Mansassas, Va.) and maintained in RPMI-1640+2.0 g/L glucose pH 7.4+5% FBS+4 mM glutamine (complete growth medium), incubated at 37° C. in 5% CO2, and passaged at subconfluent density. The human fetal colon FHC cells were cultured in DMEM:F12 medium supplemented with 10% FBS, cholera toxin (10 ng/mL), 5 μg/ml transferrin, 5 μg/ml insulin, and 100 ng/ml hydrocortisone. The passage number was routinely limited to approximately 20 and morphology monitored with each passage, but no additional authentication of the cell lines was performed.
(§6) Cells were plated in 96-well microtiter plates at a density of 5,000 cells per well and allowed to adhere overnight prior to treatment. Cells were treated with a 2-log concentration range of either SS or SBA and incubated for an additional 72 hours. For siRNA assays, cells were transfected in OptiMEM media with 0.5% SureFECT transfection reagent and 200 nmol/L of either negative control or PDE5 siRNA and incubated at 37° C. for 24 h prior to treatment. At the end of the incubation period, relative cell viability was compared to vehicle controls using the Cell Titer Glo Assay (Promega, Madison Wis.), which measures viable cells based on ATP content, according to the manufacturer's specifications.

[8] = tested on: RPMI-8226; experiment: Tumor cell growth inhibition panel; format: cell-based; details: Homo sapiens, Hematopoietic
Experimental: as §4, §5, §6

[9] = tested on: Hs578T; experiment: Tumor cell growth inhibition panel; format: cell-based; details: Homo sapiens, Hs-578T, Breast
Experimental: as §4, §5, §6

[10] = tested on: OVCAR-8; experiment: Tumor cell growth inhibition panel; format: cell-based; details: Homo sapiens, Ovarian
Experimental: as §4, §5, §6

[11] = tested on: DU-145; experiment: Tumor cell growth inhibition panel; format: cell-based; details: Homo sapiens, Prostate
Experimental: as §4, §5, §6

[12] = tested on: MCF-7; experiment: Tumor cell growth inhibition panel; format: cell-based; details: Homo sapiens, MCF7, Breast
Experimental: as §4, §5, §6

[13] = tested on: A498; experiment: Tumor cell growth inhibition panel; format: cell-based; details: Homo sapiens, Renal
Experimental: as §4, §5, §6

[14] = tested on: SKOV-3; experiment: Tumor cell growth inhibition panel; format: cell-based; details: Homo sapiens, SK-OV-3, Ovarian
Experimental: as §4, §5, §6

[15] = tested on: CCFR-CEM; experiment: Tumor cell growth inhibition panel; format: cell-based; details: Homo sapiens, Hematopoietic
Experimental: as §4, §5, §6

[16] = tested on: HL-60 (TB); experiment: Tumor cell growth inhibition panel; format: cell-based; details: Homo sapiens, Hematopoietic
Experimental: as §4, §5, §6

[17] = target: PDE1A (Homo sapiens (Human), UniProt P54750); experiment: PDE isozyme selectivity, IMAP assay; format: biochemical
Experimental: as §1, with “enzymes. FP was measured at excitation, emission wavelengths of either 530,590 nm for TAMRA-cGMP or 485,530 nm for fluorescein-cAMP using a Synergy4 (Biotek) microplate reader.” for “enzymes.”

[18] = target: PDE10 (Homo sapiens (Human), UniProt Q9Y233); experiment: PDE isozyme selectivity, IMAP assay; format: biochemical
Experimental: as §1, with “enzymes. FP was measured at excitation, emission wavelengths of either 530,590 nm for TAMRA-cGMP or 485,530 nm for fluorescein-cAMP using a Synergy4 (Biotek) microplate reader.” for “enzymes.”

[19] = target: PDE5A (Homo sapiens (Human), UniProt O76074); experiment: PDE isozyme selectivity, IMAP assay; format: biochemical
Experimental: as §1, with “enzymes. FP was measured at excitation, emission wavelengths of either 530,590 nm for TAMRA-cGMP or 485,530 nm for fluorescein-cAMP using a Synergy4 (Biotek) microplate reader.” for “enzymes.”

[20] = target: PDE9A (Homo sapiens (Human), UniProt O76083); experiment: PDE isozyme selectivity, IMAP assay; format: biochemical; details: substrate cGMP
Experimental: as §1, with “enzymes. FP was measured at excitation, emission wavelengths of either 530,590 nm for TAMRA-cGMP or 485,530 nm for fluorescein-cAMP using a Synergy4 (Biotek) microplate reader.” for “enzymes.”

[21] = target: PDE3A (Homo sapiens (Human), UniProt Q14432); experiment: PDE isozyme selectivity, IMAP assay; format: biochemical
Experimental: as §1, with “enzymes. FP was measured at excitation, emission wavelengths of either 530,590 nm for TAMRA-cGMP or 485,530 nm for fluorescein-cAMP using a Synergy4 (Biotek) microplate reader.” for “enzymes.”

[22] = target: PDE11 (Homo sapiens (Human), UniProt Q9HCR9); experiment: PDE isozyme selectivity, IMAP assay; format: biochemical
Experimental: as §1, with “enzymes. FP was measured at excitation, emission wavelengths of either 530,590 nm for TAMRA-cGMP or 485,530 nm for fluorescein-cAMP using a Synergy4 (Biotek) microplate reader.” for “enzymes.”

[23] = target: PDE3B (Homo sapiens (Human), UniProt Q13370); experiment: PDE isozyme selectivity, IMAP assay; format: biochemical
Experimental: as §1, with “enzymes. FP was measured at excitation, emission wavelengths of either 530,590 nm for TAMRA-cGMP or 485,530 nm for fluorescein-cAMP using a Synergy4 (Biotek) microplate reader.” for “enzymes.”

Chain of PDE1A (P54750 whole entry, species assumed): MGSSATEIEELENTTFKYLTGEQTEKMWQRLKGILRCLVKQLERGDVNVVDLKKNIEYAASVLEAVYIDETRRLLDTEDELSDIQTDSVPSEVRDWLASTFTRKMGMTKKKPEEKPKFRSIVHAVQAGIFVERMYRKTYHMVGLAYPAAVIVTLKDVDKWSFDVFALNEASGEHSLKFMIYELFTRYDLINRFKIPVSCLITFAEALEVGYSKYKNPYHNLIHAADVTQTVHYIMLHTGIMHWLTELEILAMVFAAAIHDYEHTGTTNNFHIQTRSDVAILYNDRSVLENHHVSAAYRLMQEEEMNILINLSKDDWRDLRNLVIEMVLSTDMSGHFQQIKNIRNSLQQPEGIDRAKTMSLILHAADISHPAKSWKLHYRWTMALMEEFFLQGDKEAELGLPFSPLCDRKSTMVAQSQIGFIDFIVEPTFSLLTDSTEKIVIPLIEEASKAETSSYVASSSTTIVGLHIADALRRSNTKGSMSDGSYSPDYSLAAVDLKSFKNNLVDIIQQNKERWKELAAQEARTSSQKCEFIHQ
Chain of PDE10 (Q9Y233 whole entry): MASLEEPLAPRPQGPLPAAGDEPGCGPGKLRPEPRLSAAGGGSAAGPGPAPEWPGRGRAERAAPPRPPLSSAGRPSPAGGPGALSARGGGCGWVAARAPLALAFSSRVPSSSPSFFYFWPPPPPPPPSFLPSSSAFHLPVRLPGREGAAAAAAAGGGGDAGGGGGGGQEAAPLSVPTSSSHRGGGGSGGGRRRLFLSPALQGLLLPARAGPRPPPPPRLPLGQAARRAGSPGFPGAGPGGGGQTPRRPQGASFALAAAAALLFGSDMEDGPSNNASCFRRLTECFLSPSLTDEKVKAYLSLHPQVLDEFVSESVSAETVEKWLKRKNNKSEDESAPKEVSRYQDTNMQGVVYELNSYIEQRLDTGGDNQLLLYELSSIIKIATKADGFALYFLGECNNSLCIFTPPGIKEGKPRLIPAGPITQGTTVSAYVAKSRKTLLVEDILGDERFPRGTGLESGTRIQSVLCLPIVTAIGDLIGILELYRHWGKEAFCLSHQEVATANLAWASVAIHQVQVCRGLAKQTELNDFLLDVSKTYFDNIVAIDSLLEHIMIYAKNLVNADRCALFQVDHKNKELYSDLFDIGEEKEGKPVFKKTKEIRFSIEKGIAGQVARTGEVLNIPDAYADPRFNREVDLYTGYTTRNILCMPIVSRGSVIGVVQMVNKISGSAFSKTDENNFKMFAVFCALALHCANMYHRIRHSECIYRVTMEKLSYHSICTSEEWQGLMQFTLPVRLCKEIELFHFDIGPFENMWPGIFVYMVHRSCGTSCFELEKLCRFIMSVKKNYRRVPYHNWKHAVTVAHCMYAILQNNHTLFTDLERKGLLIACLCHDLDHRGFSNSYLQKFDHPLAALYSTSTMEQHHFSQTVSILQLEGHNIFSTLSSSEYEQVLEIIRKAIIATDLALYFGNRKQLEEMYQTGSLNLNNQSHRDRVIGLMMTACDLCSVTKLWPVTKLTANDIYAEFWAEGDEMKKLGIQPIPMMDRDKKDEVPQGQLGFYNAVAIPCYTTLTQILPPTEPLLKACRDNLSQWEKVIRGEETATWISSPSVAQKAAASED
Chain of PDE11 (Q9HCR9 whole entry): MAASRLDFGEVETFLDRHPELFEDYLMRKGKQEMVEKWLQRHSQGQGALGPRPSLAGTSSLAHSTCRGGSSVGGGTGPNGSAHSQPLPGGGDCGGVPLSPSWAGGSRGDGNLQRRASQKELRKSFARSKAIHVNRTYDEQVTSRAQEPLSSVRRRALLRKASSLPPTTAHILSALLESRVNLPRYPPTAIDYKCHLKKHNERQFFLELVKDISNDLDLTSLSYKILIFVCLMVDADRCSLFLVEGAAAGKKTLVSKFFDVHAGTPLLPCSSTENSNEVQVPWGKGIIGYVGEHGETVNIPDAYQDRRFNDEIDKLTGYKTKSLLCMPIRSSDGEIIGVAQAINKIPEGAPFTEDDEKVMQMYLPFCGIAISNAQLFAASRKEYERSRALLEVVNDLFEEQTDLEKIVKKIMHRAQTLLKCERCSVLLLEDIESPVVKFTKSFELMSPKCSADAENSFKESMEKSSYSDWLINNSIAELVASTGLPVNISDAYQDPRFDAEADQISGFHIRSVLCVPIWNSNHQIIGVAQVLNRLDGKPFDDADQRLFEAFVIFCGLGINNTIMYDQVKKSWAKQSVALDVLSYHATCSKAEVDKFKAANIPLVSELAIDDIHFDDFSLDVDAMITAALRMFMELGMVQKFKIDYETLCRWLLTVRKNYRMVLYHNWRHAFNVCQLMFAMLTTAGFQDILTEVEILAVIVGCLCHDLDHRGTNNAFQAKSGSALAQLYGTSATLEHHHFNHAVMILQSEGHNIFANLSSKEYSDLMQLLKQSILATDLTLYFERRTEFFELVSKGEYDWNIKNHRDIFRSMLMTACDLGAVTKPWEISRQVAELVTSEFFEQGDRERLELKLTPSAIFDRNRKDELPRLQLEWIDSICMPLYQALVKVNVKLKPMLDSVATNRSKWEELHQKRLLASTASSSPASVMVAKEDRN
Chain of PDE3A (Q14432 whole entry, species assumed): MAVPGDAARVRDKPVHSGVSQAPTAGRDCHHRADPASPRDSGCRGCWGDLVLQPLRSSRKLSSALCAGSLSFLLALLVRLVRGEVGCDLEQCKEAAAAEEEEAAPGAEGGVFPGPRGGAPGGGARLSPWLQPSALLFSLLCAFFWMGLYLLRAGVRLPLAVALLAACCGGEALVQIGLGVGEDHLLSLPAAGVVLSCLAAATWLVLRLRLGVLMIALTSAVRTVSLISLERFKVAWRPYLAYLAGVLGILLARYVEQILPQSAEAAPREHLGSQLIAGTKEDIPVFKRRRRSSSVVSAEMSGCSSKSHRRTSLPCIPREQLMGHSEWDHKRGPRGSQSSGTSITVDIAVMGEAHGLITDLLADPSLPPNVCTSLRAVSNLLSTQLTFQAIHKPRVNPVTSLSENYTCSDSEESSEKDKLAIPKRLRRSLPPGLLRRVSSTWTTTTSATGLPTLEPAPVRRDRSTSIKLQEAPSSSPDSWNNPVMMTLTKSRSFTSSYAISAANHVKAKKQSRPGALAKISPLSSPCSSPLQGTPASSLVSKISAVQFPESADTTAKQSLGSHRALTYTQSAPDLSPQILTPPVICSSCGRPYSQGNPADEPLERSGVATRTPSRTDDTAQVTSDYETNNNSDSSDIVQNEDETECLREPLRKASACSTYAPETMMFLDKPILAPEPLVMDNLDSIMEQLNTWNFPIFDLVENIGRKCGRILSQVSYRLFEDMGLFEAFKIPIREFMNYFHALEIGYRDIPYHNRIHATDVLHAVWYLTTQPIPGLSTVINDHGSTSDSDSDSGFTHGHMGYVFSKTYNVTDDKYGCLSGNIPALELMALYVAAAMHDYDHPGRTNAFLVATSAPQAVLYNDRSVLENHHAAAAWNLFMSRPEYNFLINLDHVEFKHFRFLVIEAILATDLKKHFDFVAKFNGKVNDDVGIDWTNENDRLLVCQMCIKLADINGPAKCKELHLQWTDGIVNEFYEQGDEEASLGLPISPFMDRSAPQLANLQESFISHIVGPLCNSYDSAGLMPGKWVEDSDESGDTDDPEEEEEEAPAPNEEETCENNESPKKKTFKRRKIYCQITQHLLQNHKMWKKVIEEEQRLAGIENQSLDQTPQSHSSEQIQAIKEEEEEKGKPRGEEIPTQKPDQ
Chain of PDE3B (Q13370 whole entry, species assumed): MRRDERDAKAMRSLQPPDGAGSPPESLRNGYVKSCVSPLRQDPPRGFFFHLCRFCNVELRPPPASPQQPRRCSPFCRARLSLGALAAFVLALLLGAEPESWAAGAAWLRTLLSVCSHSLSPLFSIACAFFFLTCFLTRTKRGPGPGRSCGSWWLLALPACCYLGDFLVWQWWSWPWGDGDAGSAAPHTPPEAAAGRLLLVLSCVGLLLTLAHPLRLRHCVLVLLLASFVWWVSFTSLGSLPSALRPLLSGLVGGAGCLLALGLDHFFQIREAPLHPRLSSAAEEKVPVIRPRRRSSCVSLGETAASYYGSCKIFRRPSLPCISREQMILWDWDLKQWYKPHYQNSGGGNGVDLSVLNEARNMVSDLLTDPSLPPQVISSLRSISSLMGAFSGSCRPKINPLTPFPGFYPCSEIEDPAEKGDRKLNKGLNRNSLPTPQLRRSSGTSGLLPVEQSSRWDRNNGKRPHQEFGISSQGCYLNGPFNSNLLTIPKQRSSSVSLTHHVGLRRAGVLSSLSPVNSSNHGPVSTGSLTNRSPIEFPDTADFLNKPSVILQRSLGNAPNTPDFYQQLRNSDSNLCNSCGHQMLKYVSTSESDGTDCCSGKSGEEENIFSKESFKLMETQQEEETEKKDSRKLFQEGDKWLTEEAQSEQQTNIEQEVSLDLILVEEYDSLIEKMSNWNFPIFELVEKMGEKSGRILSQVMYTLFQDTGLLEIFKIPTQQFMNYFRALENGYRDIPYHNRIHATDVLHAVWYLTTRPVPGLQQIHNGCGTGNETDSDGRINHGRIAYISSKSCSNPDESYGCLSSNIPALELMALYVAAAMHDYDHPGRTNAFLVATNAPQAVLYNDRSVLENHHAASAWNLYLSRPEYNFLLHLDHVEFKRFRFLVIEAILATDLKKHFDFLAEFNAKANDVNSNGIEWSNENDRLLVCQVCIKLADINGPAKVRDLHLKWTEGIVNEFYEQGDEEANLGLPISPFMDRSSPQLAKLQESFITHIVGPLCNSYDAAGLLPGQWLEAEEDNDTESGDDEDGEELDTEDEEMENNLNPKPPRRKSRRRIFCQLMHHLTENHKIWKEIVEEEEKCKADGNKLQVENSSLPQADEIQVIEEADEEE

CC(C)(C)C1=NN(c2ccc(C(=O)O)cc2)C(c2ccc(Cl)cc2Cl)C1 (stereo not drawn) [Compound 12, 4-(3-(tert-Butyl)-5-(2,4-dichlorophenyl)-4,5-dihydro-1H-pyrazol-1-yl)benzoic acid]
IC50 ([1]; substrate cAMP): > 50 µM | IC50 ([1]; substrate cGMP): > 50 µM | IC50 [2]: > 50 µM | IC50 [3]: 29.8 µM | IC50 [4]: 3.7 µM | IC50 [5]: > 100 µM | IC50 [6]: > 100 µM | IC50 [7]: 42.9 µM | IC50 [8]: 23.2 µM | IC50 [9]: 48.9 µM | IC50 [10]: 45.8 µM | IC50 [11]: 59.6 µM | IC50 [12]: 52.4 µM | IC50 [13]: 33 µM | IC50 [14]: 87.4 µM | IC50 [15]: 33.1 µM | IC50 [16]: 34.5 µM | IC50 ([17]; substrate cAMP): > 50 µM | IC50 ([17]; substrate cGMP): > 50 µM | IC50 ([18]; PDE10, substrate cAMP): > 50 µM | IC50 ([18]; PDE10, substrate cGMP): > 50 µM | IC50 ([19]; PDE5A, substrate cGMP): 3.7 µM | selectivity for PDE5 relative to other cGMP degrading PDE isozymes ([19]; in words): selective inhibitor for PDE5 | IC50 [20]: > 50 µM | IC50 ([21]; substrate cAMP): > 50 µM | IC50 ([21]; substrate cGMP): > 50 µM | IC50 ([22]; PDE11, substrate cAMP): > 50 µM | IC50 ([22]; PDE11, substrate cGMP): > 50 µM | IC50 ([23]; substrate cAMP): > 50 µM | IC50 ([23]; substrate cGMP): > 50 µM
